Data published in US20100298141A1, “SUBSTITUTED PYRIDINE N-OXIDE HERBICIDES” (E. I. DU PONT DE NEMOURS AND COMPANY, priority 2007, published 2010).

Experiments:
barnyardgrass = assay: Test A pre-/postemergence greenhouse test; assay type: in vivo, Echinochloa crus-galli; details: for Barnyardgrass plant response rating: 0 to 100 scale; for Plant response rating, Barnyardgrass: 0 to 100 scale where 0 is no effect and 100 is complete control
How it was run: (§1)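 Visual injury ratings, made relative to untreated controls roughly ten days after treatment, cover both preemergence and postemergence application. Compounds in a surfactant-containing non-phytotoxic solvent were sprayed onto the soil surface after sowing and, simultaneously, onto young plants at the one- to two-leaf stage.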

redroot pigweed = assay: Test A pre-/postemergence greenhouse test; assay type: in vivo, Amaranthus retroflexus; details: for Pigweed plant response rating: 0 to 100 scale; for Plant response rating, Pigweed: 0 to 100 scale where 0 is no effect and 100 is complete control
How it was run: as §1

velvetleaf [1] = assay: Test A pre-/postemergence greenhouse test; assay type: in vivo, Abutilon theophrasti; details: for Velvetleaf plant response rating: 0 to 100 scale; for Plant response rating, Velvetleaf: 0 to 100 scale where 0 is no effect and 100 is complete control
How it was run: as §1

downy brome = assay: Test C pre-/postemergence test; assay type: in vivo, Bromus tectorum; details: for Plant response rating, Bromegrass, Downy: 31 g ai/ha, scale 0 to 100 (0 no effect, 100 complete control); for Plant response rating (0 to 100), Bromegrass, Downy: 250 g ai/ha
How it was run: (§2)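 Test chemicals were formulated with surfactant in a non-phytotoxic solvent and sprayed both on freshly planted seeds (preemergence) and on 1- to 4-leaf plants of 2–18 cm (postemergence). Flooded-paddy pots received compound directly into 3 cm of standing water, maintained for the test.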

green foxtail = assay: Test C pre-/postemergence test; assay type: in vivo, Setaria viridis; details: Preemergence; for Foxtail, Green plant response rating: 62 g ai/ha, scale 0 to 100; for Plant response rating, Foxtail, Green: 31 g ai/ha, scale 0 to 100 (0 no effect, 100 complete control); for Plant response rating (0 to 100), Foxtail, Green: 250 g ai/ha
How it was run: as §2

wild oat = assay: Test C pre-/postemergence test; assay type: in vivo, Avena fatua; details: Preemergence; for Oat, Wild plant response rating: 62 g ai/ha, scale 0 to 100; for Plant response rating, Oat, Wild: 31 g ai/ha, scale 0 to 100 (0 no effect, 100 complete control)
How it was run: as §2

Surinam grass = assay: Test C pre-/postemergence test; assay type: in vivo, Brachiaria decumbens; details: Preemergence; for Surinam Grass plant response rating: 62 g ai/ha, scale 0 to 100; for Plant response rating, Surinam Grass: 31 g ai/ha, scale 0 to 100 (0 no effect, 100 complete control)
How it was run: as §2

cocklebur = assay: Test C pre-/postemergence test; assay type: in vivo, Xanthium strumarium; details: for Plant response rating, Cocklebur: 31 g ai/ha, scale 0 to 100 (0 no effect, 100 complete control)
How it was run: as §2

crabgrass = assay: Test C pre-/postemergence test; assay type: in vivo, Digitaria sanguinalis; details: Preemergence; for Crabgrass, Large plant response rating: 62 g ai/ha, scale 0 to 100; for Plant response rating, Crabgrass, Large: 31 g ai/ha, scale 0 to 100 (0 no effect, 100 complete control); for Plant response rating (0 to 100), Crabgrass, Large: 250 g ai/ha
How it was run: as §2

giant foxtail = assay: Test C pre-/postemergence test; assay type: in vivo, Setaria faberii; details: Preemergence; for Foxtail, Giant plant response rating: 62 g ai/ha, scale 0 to 100; for Plant response rating, Foxtail, Giant: 31 g ai/ha, scale 0 to 100 (0 no effect, 100 complete control); for Plant response rating (0 to 100), Foxtail, Giant: 250 g ai/ha
How it was run: as §2

johnsongrass = assay: Test C pre-/postemergence test; assay type: in vivo, Sorghum halepense; details: Preemergence; for Johnsongrass plant response rating: 62 g ai/ha, scale 0 to 100; for Plant response rating, Johnsongrass: 31 g ai/ha, scale 0 to 100 (0 no effect, 100 complete control); for Plant response rating (0 to 100), Johnsongrass: 250 g ai/ha
How it was run: as §2

kochia = assay: Test C pre-/postemergence test; assay type: in vivo, Kochia scoparia; details: Preemergence; for Kochia plant response rating: 62 g ai/ha, scale 0 to 100; for Plant response rating, Kochia: 31 g ai/ha, scale 0 to 100 (0 no effect, 100 complete control)
How it was run: as §2

lambsquarters = assay: Test C pre-/postemergence test; assay type: in vivo, Chenopodium album; details: Preemergence; for Lambsquarters plant response rating: 62 g ai/ha, scale 0 to 100; for Plant response rating, Lambsquarters: 31 g ai/ha, scale 0 to 100 (0 no effect, 100 complete control)
How it was run: as §2

eastern black nightshade = assay: Test C pre-/postemergence test; assay type: in vivo, Solanum ptycanthum; details: Preemergence; for Nightshade plant response rating: 62 g ai/ha, scale 0 to 100; for Plant response rating, Nightshade: 31 g ai/ha, scale 0 to 100 (0 no effect, 100 complete control)
How it was run: as §2

common ragweed = assay: Test C pre-/postemergence test; assay type: in vivo, Ambrosia elation; details: Preemergence; for Plant response rating, Ragweed: 31 g ai/ha, scale 0 to 100 (0 no effect, 100 complete control)
How it was run: as §2

velvetleaf [2] = assay: Test C pre-/postemergence test; assay type: in vivo, Abutilon theophrasti; details: Preemergence; for Velvetleaf plant response rating: 62 g ai/ha, scale 0 to 100; for Plant response rating, Velvetleaf: 31 g ai/ha, scale 0 to 100 (0 no effect, 100 complete control)
How it was run: as §2

rice = assay: Test C flooded paddy test; assay type: in vivo, Oryza sativa; details: Flood
How it was run: (§3)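 Greenhouse pots flooded to 3 cm above soil at time of treatment received compound via the water, which stayed at that level.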

duck salad = assay: Test C flooded paddy test; assay type: in vivo, Heteranthera limosa; details: Flood
How it was run: as §3

[3] = Postemergence, 125 g ai/ha, 0 is no effect, 100 is complete control
[4] = Postemergence, 500 g ai/ha, 0 is no effect, 100 is complete control
[5] = Preemergence, 125 g ai/ha, 0 no effect, 100 complete control
[6] = 62 g ai/ha, Preemergence, scale 0 to 100
[7] = preemergence, 125 g ai/ha, scale 0 (no effect) to 100 (complete control)
[8] = 31 g ai/ha, scale 0 to 100 (0 no effect, 100 complete control)
[9] = 62 g ai/ha, scale 0 to 100, 0 no effect, 100 complete control, 13 to 15 days
[10] = 125 g ai/ha, scale 0 to 100, 0 no effect, 100 complete control, 13 to 15 days
[11] = 250 g ai/ha, scale 0 to 100 (0 no effect, 100 complete control)

Cn1nc(C(F)(F)F)c(C[S+]([O-])c2ccc(Cl)c[n+]2[O-])c1Cl (racemic) [Compound 17]
Barnyardgrass plant response rating (barnyardgrass; [3]): 80 | Barnyardgrass plant response rating (barnyardgrass; [4]): 90 | Barnyardgrass plant response rating (barnyardgrass; [5]): 70 | Plant response rating, Barnyardgrass (barnyardgrass; Preemergence, 500 g ai/ha): 100 | Pigweed plant response rating (redroot pigweed; [3]): 40 | Pigweed plant response rating (redroot pigweed; [4]): 80 | Pigweed plant response rating (redroot pigweed; [5]): 100 | Plant response rating, Pigweed (redroot pigweed; Preemergence, 500 g ai/ha): 100 | Velvetleaf plant response rating (velvetleaf [1]; [3]): 50 | Velvetleaf plant response rating (velvetleaf [1]; [4]): 80 | Velvetleaf plant response rating (velvetleaf [1]; [5]): 60 | Plant response rating, Velvetleaf (velvetleaf [1]; Preemergence, 500 g ai/ha): 100 | Bromegrass, Downy plant response rating (downy brome; [6]): 40 | Plant response rating, Bromegrass, Downy (downy brome; Preemergence): 40 | Plant response rating (0 to 100), Bromegrass, Downy (downy brome; Preemergence): 85 | Bromegrass, Downy plant response rating (downy brome; [7]): 80 | Foxtail, Green plant response rating (green foxtail): 100 | Plant response rating, Foxtail, Green (green foxtail): 70 | Plant response rating (0 to 100), Foxtail, Green (green foxtail): 100 | Oat, Wild plant response rating (wild oat): 40 | Plant response rating, Oat, Wild (wild oat): 0 | Surinam Grass plant response rating (Surinam grass): 95 | Plant response rating, Surinam Grass (Surinam grass): 0 | Cocklebur plant response rating (cocklebur; [6]): 0 | Plant response rating, Cocklebur (cocklebur; Preemergence): 0 | Cocklebur plant response rating (cocklebur; [7]): 0 | Crabgrass, Large plant response rating (crabgrass): 100 | Plant response rating, Crabgrass, Large (crabgrass): 98 | Plant response rating (0 to 100), Crabgrass, Large (crabgrass): 100 | Foxtail, Giant plant response rating (giant foxtail): 100 | Plant response rating, Foxtail, Giant (giant foxtail): 95 | Plant response rating (0 to 100), Foxtail, Giant (giant foxtail): 100 | Johnsongrass plant response rating (johnsongrass): 100 | Plant response rating, Johnsongrass (johnsongrass): 98 | Plant response rating (0 to 100), Johnsongrass (johnsongrass): 100 | Kochia plant response rating (kochia): 100 | Plant response rating, Kochia (kochia): 80 | Lambsquarters plant response rating (lambsquarters): 100 | Plant response rating, Lambsquarters (lambsquarters): 100 | Nightshade plant response rating (eastern black nightshade): 100 | Plant response rating, Nightshade (eastern black nightshade): 98 | Ragweed plant response rating (common ragweed; 62 g ai/ha, scale 0 to 100): 75 | Plant response rating, Ragweed (common ragweed): 10 | Velvetleaf plant response rating (velvetleaf [2]): 80 | Plant response rating, Velvetleaf (velvetleaf [2]): 0 | Plant response rating, Rice (rice; [8]): 0 | Plant response rating, Rice (rice; [9]): 70 | Plant response rating, Rice (rice; [10]): 75 | Plant response rating, Rice (rice; [11]): 80 | Plant response rating, Ducksalad (duck salad; [8]): 60 | Plant response rating, Ducksalad (duck salad; [9]): 80 | Plant response rating, Ducksalad (duck salad; [10]): 85 | Plant response rating, Ducksalad (duck salad; [11]): 95

Cc1cc[n+]([O-])c([S+]([O-])Cc2c(C(F)(F)F)nn(C)c2Cl)c1 (racemic) [Compound 20]
Barnyardgrass plant response rating (barnyardgrass; [3]): 40 | Barnyardgrass plant response rating (barnyardgrass; [4]): 80 | Barnyardgrass plant response rating (barnyardgrass; [5]): 70 | Plant response rating, Barnyardgrass (barnyardgrass; Preemergence, 500 g ai/ha): 100 | Pigweed plant response rating (redroot pigweed; [3]): 40 | Pigweed plant response rating (redroot pigweed; [4]): 70 | Pigweed plant response rating (redroot pigweed; [5]): 90 | Plant response rating, Pigweed (redroot pigweed; Preemergence, 500 g ai/ha): 100 | Velvetleaf plant response rating (velvetleaf [1]; [3]): 30 | Velvetleaf plant response rating (velvetleaf [1]; [4]): 60 | Velvetleaf plant response rating (velvetleaf [1]; [5]): 0 | Plant response rating, Velvetleaf (velvetleaf [1]; Preemergence, 500 g ai/ha): 60 | Bromegrass, Downy plant response rating (downy brome; [6]): 0 | Plant response rating, Bromegrass, Downy (downy brome; Preemergence): 0 | Plant response rating (0 to 100), Bromegrass, Downy (downy brome; Preemergence): 70 | Bromegrass, Downy plant response rating (downy brome; [7]): 70 | Foxtail, Green plant response rating (green foxtail): 100 | Plant response rating, Foxtail, Green (green foxtail): 98 | Plant response rating (0 to 100), Foxtail, Green (green foxtail): 100 | Oat, Wild plant response rating (wild oat): 10 | Plant response rating, Oat, Wild (wild oat): 0 | Surinam Grass plant response rating (Surinam grass): 70 | Plant response rating, Surinam Grass (Surinam grass): 0 | Cocklebur plant response rating (cocklebur; [6]): 0 | Plant response rating, Cocklebur (cocklebur; Preemergence): 0 | Plant response rating (0 to 100), Cocklebur (cocklebur; Preemergence, 250 g ai/ha): 20 | Cocklebur plant response rating (cocklebur; [7]): 0 | Crabgrass, Large plant response rating (crabgrass): 100 | Plant response rating, Crabgrass, Large (crabgrass): 85 | Plant response rating (0 to 100), Crabgrass, Large (crabgrass): 100 | Foxtail, Giant plant response rating (giant foxtail): 98 | Plant response rating, Foxtail, Giant (giant foxtail): 85 | Plant response rating (0 to 100), Foxtail, Giant (giant foxtail): 100 | Johnsongrass plant response rating (johnsongrass): 80 | Plant response rating, Johnsongrass (johnsongrass): 60 | Plant response rating (0 to 100), Johnsongrass (johnsongrass): 100 | Kochia plant response rating (kochia): 100 | Plant response rating, Kochia (kochia): 0 | Lambsquarters plant response rating (lambsquarters): 100 | Plant response rating, Lambsquarters (lambsquarters): 90 | Nightshade plant response rating (eastern black nightshade): 85 | Plant response rating, Nightshade (eastern black nightshade): 80 | Plant response rating, Ragweed (common ragweed): 0 | Velvetleaf plant response rating (velvetleaf [2]): 5 | Plant response rating, Velvetleaf (velvetleaf [2]): 0 | Plant response rating, Rice (rice; [8]): 0 | Plant response rating, Rice (rice; [9]): 0 | Plant response rating, Rice (rice; [10]): 0 | Plant response rating, Rice (rice; [11]): 30 | Plant response rating, Ducksalad (duck salad; [8]): 0 | Plant response rating, Ducksalad (duck salad; [9]): 0 | Plant response rating, Ducksalad (duck salad; [10]): 0 | Plant response rating, Ducksalad (duck salad; [11]): 75
